For the test, the system named is E. coli. Nature of the test: pin array antibiotic susceptibility assay (zones of inhibition) on LB agar plates. The format is cell-based. Conditions: 7×7 pin array. Here is the method: 1. Cell Introduction: E. coli resuspension were plated onto LB agar plates and incubated at 37° C. until the cells reach desired condition.
2. Pin array preparation: Two 7×7 pin arrays were loaded with ampicillin from 0.2 μg to 4 μg according to the configurations shown in FIGS. 5B and 6B, respectively.
3. Treatment: After the cells reach the desired condition, the pin arrays loaded with ampicillin according to the configurations shown in FIGS. 5B and 6B were coupled to LB agar plates with E. coli culture. The LB agar plates were incubated at 37° C.
2. Pin array preparation: Two 7×7 pin arrays were loaded with ampicillin from 0.4 μg to 4 μg according to the configurations shown in FIGS. 7A and 7B, respectively.
3. Treatment: After the cells reach the desired condition, the pin arrays loaded with ampicillin according to the configurations shown in FIGS. 7A and 7B were coupled to LB agar plates with E. coli culture. The LB agar plates were incubated at 37° C., and stored overnight at 4° C. and in Styrofoam box with ice packs, respectively.
2. Pin array preparation: A 7×7 pin array was loaded with ampicillin from 0.4 μg to 4 μg according to the configurations shown in FIG. 8A.
3. Treatment: After the cells reach the desired condition, the pin array loaded with ampicillin according to the configurations shown in FIG. 8A was coupled to an LB agar plate with E. coli culture. The LB agar plate was incubated at 37° C., and images of the plates were taken at the same day (FIG. 8A), and after 5 weeks at 4° C. (FIG. 8B).

In the case of `CC1(C)S[C@@H]2[C@H](NC(=O)[C@H](N)c3ccccc3)C(=O)N2[C@H]1C(=O)O` [ampicillin], the zones of inhibition result is “well-defined, and a dose-dependent manner of the sizes of the zones” (ampicillin 0.2 μg to 4 μg, configuration of FIG. 5B, 37° C. (FIG. 5A)); “well-defined, dose-dependent zones of inhibition” (ampicillin 0.2 μg to 4 μg, configuration of FIG. 6B, 37° C. (FIG. 6A)); “smaller zones of inhibition” (ampicillin 0.4 μg to 4 μg, after 5 weeks of storage at 4° C. (FIG. 8B)); “Well-defined, dose-dependent zones of inhibition” (ampicillin 0.4 μg to 4 μg, image taken the same day (FIG. 8A)); “Well-defined, dose-dependent zones of inhibition” (ampicillin 0.4 μg to 4 μg, stored overnight at 4° C. (FIG. 7A)); “Well-defined, dose-dependent zones of inhibition” (ampicillin 0.4 μg to 4 μg, stored overnight in Styrofoam box with ice packs (FIG. 7B)).

The record behind these values is patent publication US20240254536A1, “[…] ARRAY AND USES THEREOF” (DrugArray, Inc., priority 2021, published 2024).
